In ChEMBL document CHEMBL1135266, “Covalent analogues of DNA base-pairs and triplets. Part 2: synthesis and cytostatic activity of bis(purin-6-yl)acetylenes,-diacetylenes and related compounds” (Bioorg Med Chem Lett, 2002):

Legend:
L1210 [1] = assay: Tested in vitro for the inhibition of cell growth of mouse leukemia L1210 cell (ATCC CCL 219); type: functional, cell-based
L929 [2] = assay: Tested in vitro for the inhibition of cell growth of murine L929 cells (ATCC CCL 1); type: functional, cell-based; conditions: Mus musculus
CCRF-CEM [3] = assay: Tested in vitro for the inhibition of cell growth of human T lymphoblastoid CCRF-CEM cell line (ATCC CCL 119); type: functional, cell-based
HeLa [4] = assay: Tested in vitro for the inhibition of cell growth of human cervix carcinoma HeLa S3 cell (ATCC CCL 2.2); type: functional, cell-based
L929 [5] = assay: Tested in vitro for the inhibition of cell growth of murine L929 cells (ATCC CCL 1); na = not active (inhibition of cell growth at 10 uM was lower than 20%); type: functional, cell-based, Mus musculus
L1210 [6] = assay: Tested in vitro for the inhibition of cell growth of mouse leukemia L1210 cell (ATCC CCL 219); na = not active (inhibition of cell growth at 10 uM was lower than 20%); type: functional, cell-based
HeLa [7] = assay: Tested in vitro for the inhibition of cell growth of human cervix carcinoma HeLa S3 cell (ATCC CCL 2.2); na = not active (inhibition of cell growth at 10 uM was lower than 20%); type: functional, cell-based
CCRF-CEM [8] = assay: Tested in vitro for the inhibition of cell growth of human T lymphoblastoid CCRF-CEM cell line (ATCC CCL 119); na = not active (inhibition of cell growth at 10 uM was lower than 20%); type: functional, cell-based

## CCCCCn1cnc2c(C#CC#Cc3ncnc4c3ncn4CCCCC)ncnc21
L1210 [1]
  IC50: 500 nM
L929 [2]
  IC50: 1300 nM
CCRF-CEM [3]
  IC50: 370 nM
HeLa [4]
  IC50: 15000 nM

## C(=C\c1ncnc2c1ncn2Cc1ccccc1)/c1ncnc2c1ncn2Cc1ccccc1
L929 [5]
  IC50: Not Active
L1210 [6]
  IC50: Not Active
HeLa [7]
  IC50: Not Active
CCRF-CEM [8]
  IC50: Not Active

## C(#Cc1ncnc2c1ncn2C1CCCCO1)c1ncnc2c1ncn2Cc1ccccc1 (stereo not given)
L1210 [1]
  IC50: 900 nM
L929 [2]
  IC50: 1900 nM
CCRF-CEM [3]
  IC50: 320 nM
HeLa [4]
  IC50: 6000 nM

## C(C#Cc1ncnc2c1ncn2Cc1ccccc1)#Cc1ncnc2c1ncn2Cc1ccccc1
L1210 [1]
  IC50: 370 nM
L929 [2]
  IC50: 6300 nM
CCRF-CEM [3]
  IC50: 430 nM
HeLa [7]
  IC50: Not Active

## C(#Cc1ncnc2c1ncn2Cc1ccccc1)c1ncnc2c1ncn2Cc1ccccc1
L1210 [1]
  IC50: 1800 nM
L929 [2]
  IC50: 5300 nM
CCRF-CEM [3]
  IC50: 900 nM
HeLa [7]
  IC50: Not Active

## CCCCCn1cnc2c(C#Cc3ncnc4c3ncn4CCCCC)ncnc21
L1210 [1]
  IC50: 1500 nM
L929 [2]
  IC50: 3000 nM
CCRF-CEM [3]
  IC50: 360 nM
HeLa [4]
  IC50: 15000 nM

## O=c1[nH]c(=O)n([C@H]2C[C@H](O)[C@@H](CO)O2)cc1F [FLOXURIDINE]
L1210 [1]
  IC50: < 20 nM
L929 [2]
  IC50: > 25000 nM
CCRF-CEM [3]
  IC50: 500 nM
HeLa [4]
  IC50: > 25000 nM

## c1ccc(Cn2cnc3c(CCc4ncnc5c4ncn5Cc4ccccc4)ncnc32)cc1
L929 [5]
  IC50: Not Active
L1210 [6]
  IC50: Not Active
HeLa [7]
  IC50: Not Active
CCRF-CEM [8]
  IC50: Not Active

## C(=Cc1ncnc2c1ncn2Cc1ccccc1)c1ncnc2c1ncn2Cc1ccccc1
L929 [5]
  IC50: Not Active
L1210 [6]
  IC50: Not Active
HeLa [7]
  IC50: Not Active
CCRF-CEM [8]
  IC50: Not Active

## C(C#Cc1ncnc2c1ncn2C1CCCCO1)#Cc1ncnc2c1ncn2C1CCCCO1 (stereo not given)
L1210 [1]
  IC50: 700 nM
L929 [2]
  IC50: 1000 nM
CCRF-CEM [3]
  IC50: 580 nM
HeLa [4]
  IC50: 13300 nM
